The source of these data is US20160257697A1, “THIOPHENE-SUBSTITUTED TETRACYCLIC COMPOUNDS AND METHODS OFUSE THEREOF FOR THE TREATMENT OF VIRAL DISEASES” (priority 2013, published 2016).

The structures appear in SMILES notation. Where two headings read alike, the source gives them in different places.

Holding throughout (experiment): microbe, parasite or virus in culture
What all share (assay type): cell-based, Hepatitis C virus (HCV)

Test [1] deals with HCV replicon 1AY93H. The following applies: Replicon Assay A. In short, it runs like this: (§1)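 Compound is added to replicon cells plated at 2000 cells/well (0.5% DMSO, 5% FBS). After 3 days the cells are washed and lysed, and HCV RNA and cyclophilin mRNA are quantified by multiplex RT-PCR against a standard curve of known replicon total RNA.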
In general terms: In antiviral work, replicon cells carry a viral genome segment that copies itself.

Test [2] deals with HCV replicon 1A. The following applies: replicon 1A, Replicon Assay A. In outline:
as §1

For test [3], the system named is HCV replicon 2B. The following applies: Replicon Assay A. In short, it runs like this:
as §1

Setting [4] is: read-out: 1A Y93H IC50, replicon 1AY93H.
Setting [5] is: Hepatitis C virus, read-out: 1A Y93H IC50 (nM), replicon 1AY93H.
Setting [6] is: Hepatitis C virus, read-out: 2B IC50 (nM), replicon 2B.

For orientation: IC50 means the concentration that inhibits the measured activity by half. As to `[2H]C(C)(C)C(NC(=O)OC)C(=O)N1CCC[C@H]1c1ncc(-c2cc(F)c3c(c2)OC(c2ccc(C4CC4)s2)n2c-3cc3cc(-c4cnc([C@@H]5CCCN5C(=O)[C@@H](NC(=O)OC)C(C)C)[nH]4)ccc32)[nH]1` (single isomer, unassigned) [Compound 31], the IC50 came to 0.02 nM in test [1] (setting [4]); 0.002 nM in test [2]; 0.083 nM in test [3] (read-out: 2B IC50, replicon 2B).
Taken in the same sequence, the figures for `[2H]C(C)(C)C(NC(=O)OC)C(=O)N1CCC[C@H]1c1ncc(-c2cc(F)c3c(c2)OC(c2ccc(C4CC4)s2)n2c-3cc3cc(-c4cnc([C@@H]5CCCN5C(=O)[C@@H](NC(=O)OC)C(C)C)[nH]4)ccc32)[nH]1` (single isomer, unassigned) [Compound 32] were 1.42 nM, 0.0013 nM and 6.02 nM.
Consider `CCCc1ccc(C2Oc3cc(-c4cnc([C@@H]5CCCN5C(=O)[C@@H](NC(=O)OC)C(C)C)[nH]4)cc(F)c3-c3cc4cc(-c5cnc([C@@H]6CCCN6C(=O)[C@@H](NC(=O)OC)C(C)C)[nH]5)ccc4n32)s1` (single isomer, unassigned) [Compound 33], for which the IC50 in test [1] (setting [5]) came to 0.28 nM; in test [2] (Hepatitis C virus), 0.0018 nM; in test [3] (setting [6]) it was 1.89 nM.
Take `COC(=O)N[C@H](C(=O)N1CCC[C@H]1c1ncc(-c2cc(F)c3c(c2)OC(c2ccc(CCF)s2)n2c-3cc3cc(-c4cnc([C@@H]5CCCN5C(=O)[C@@H](NC(=O)OC)C(C)C)[nH]4)ccc32)[nH]1)C(C)C` (single isomer, unassigned) [Compound 43]: the IC50 in test [1] (setting [4]) was 0.12 nM; in test [2] (Hepatitis C virus), 0.0019 nM; in test [3] (read-out: 2B IC50, replicon 2B), 0.54 nM.
Taken in the same sequence, the figures for `COC(=O)N[C@H](C(=O)N1CCC[C@H]1c1ncc(-c2cc(F)c3c(c2)OC(c2cc4nccnc4s2)n2c-3cc3cc(-c4cnc([C@@H]5CCCN5C(=O)[C@@H](NC(=O)OC)C(C)C)[nH]4)ccc32)[nH]1)C(C)C` (single isomer, unassigned) [Compound 47] were 1.54 nM, 0.0016 nM and 0.77 nM.
For `CCc1ccc(C2Oc3cc(-c4cnc([C@@H]5C[C@H]6C[C@H]6N5C(=O)[C@@H](NC(=O)OC)C(C)C)[nH]4)cc(F)c3-c3cc4cc(-c5cnc([C@@H]6C[C@H]7C[C@H]7N6C(=O)[C@@H](NC(=O)OC)C(C)C)[nH]5)ccc4n32)s1` (single isomer, unassigned) [Compound 50], the IC50 in test [1] (setting [5]) was found to be 0.0284 nM; in test [2] (Hepatitis C virus) it was 0.0014 nM; in test [3] (setting [6]) it was 1.39 nM.
The corresponding values for `COC(=O)N[C@H](C(=O)N1CCC[C@H]1c1ncc(-c2cc(F)c3c(c2)OC(c2cc4c(s2)CCCC4)n2c-3cc3cc(-c4cnc([C@@H]5CCCN5C(=O)[C@@H](NC(=O)OC)C(C)C)[nH]4)ccc32)[nH]1)C(C)C` (single isomer, unassigned) [Compound 55] are 3.26 nM, 0.0019 nM and 2.53 nM.
Taken in the same sequence, the figures for `COC(=O)N[C@H](C(=O)N1CCC[C@H]1c1ncc(-c2cc(F)c3c(c2)OC(c2ccc(C(C)(C)C)s2)n2c-3cc3cc(-c4cnc([C@@H]5CCCN5C(=O)[C@@H](NC(=O)OC)C(C)C)[nH]4)ccc32)[nH]1)C(C)C` (single isomer, unassigned) [Compound 62] were 0.69 nM, 0.0014 nM and 2.88 nM.
With `COC(=O)N[C@H](C(=O)N1CCC[C@H]1c1ncc(-c2cc(F)c3c(c2)OC(c2sc(C4CC4)cc2F)n2c-3cc3cc(-c4cnc([C@@H]5CCCN5C(=O)[C@@H](NC(=O)OC)C(C)C)[nH]4)ccc32)[nH]1)C(C)C` (single isomer, unassigned) [Compound 65], the IC50 in test [1] (setting [4]) came to 3 nM; in test [2] (Hepatitis C virus), 0.0016 nM; in test [3] (read-out: 2B IC50, replicon 2B) it was 3.6 nM.
As for `COC(=O)NC(C(=O)N1CCC[C@H]1c1ncc(-c2cc(F)c3c(c2)OC(c2ccc(C4CC4)s2)n2c-3cc3cc(-c4cnc([C@@H]5CCCN5C(=O)[C@@H](NC(=O)OC)C(C)C)[nH]4)ccc32)[nH]1)C(C)(C)F` (single isomer, unassigned) [Compound 70], the IC50 was determined as 10.5 nM in test [1] (setting [4]); 0.0188 nM in test [2] (Hepatitis C virus); 24.2 nM in test [3] (read-out: 2B IC50, replicon 2B).
Taken in the same sequence, the figures for `COC(=O)N[C@H](C(=O)N1CCC[C@H]1c1ncc(-c2cc(F)c3c(c2)OC(c2cc(F)c(C4CC4)s2)n2c-3cc3cc(-c4cnc([C@@H]5CCCN5C(=O)[C@@H](NC(=O)OC)C(C)C)[nH]4)ccc32)[nH]1)C(C)C` (single isomer, unassigned) [Compound 71] were 1.09 nM, 0.0013 nM and 3.85 nM.
On to `COC(=O)N[C@H](C(=O)N1CCC[C@H]1c1ncc(-c2cc(F)c3c(c2)OC(c2ccc(C4CC4)s2)n2c-3c(F)c3cc(-c4cnc([C@@H]5CCCN5C(=O)[C@@H](NC(=O)OC)C(C)C)[nH]4)ccc32)[nH]1)C(C)C` (single isomer, unassigned) [Compound 73], for which the figures for the IC50 in test [1] (setting [5]), in test [2] (Hepatitis C virus) and in test [3] (setting [6]) were 2.26 nM, 0.0016 nM and 5.14 nM, respectively.
As to `COC(=O)NC(C(=O)N1CCC[C@H]1c1ncc(-c2ccc3c(c2)cc2n3C(c3ccc(C4CC4)s3)Oc3cc(-c4cnc([C@@H]5CCCN5C(=O)[C@@H](NC(=O)OC)C(C)C)[nH]4)cc(F)c3-2)[nH]1)C(C)(C)F` (single isomer, unassigned) [Compound 76], the IC50 in test [1] (setting [4]) worked out at 2.55 nM; in test [2] it was 0.0159 nM; in test [3] (read-out: 2B IC50, replicon 2B) it was 13.7 nM.
The corresponding values for `CCOC(C)[C@H](NC(=O)OC)C(=O)N1CCC[C@H]1c1ncc(-c2cc(F)c3c(c2)OC(c2cc(C)c(C)s2)n2c-3cc3cc(-c4cnc([C@@H]5CCCN5C(=O)[C@@H](NC(=O)OC)C(C)C)[nH]4)ccc32)[nH]1` (single isomer, unassigned) [Compound 80] are 4.87 nM, 0.0027 nM and 3.16 nM.
As for `COCCc1ccc(C2Oc3cc(-c4cnc([C@@H]5CCCN5C(=O)[C@@H](NC(=O)OC)C(C)C)[nH]4)cc(F)c3-c3cc4cc(-c5cnc([C@@H]6CCCN6C(=O)[C@@H](NC(=O)OC)C(C)C)[nH]5)ccc4n32)s1` (single isomer, unassigned) [Compound 81], the IC50 in test [1] (setting [5]) stood at 0.41 nM; in test [2] (Hepatitis C virus), 0.0014 nM; in test [3] (setting [6]), 1.32 nM.
As to `COC(=O)N[C@H](C(=O)N1CCC[C@H]1c1ncc(-c2cc(F)c3c(c2)OC(c2ccc(C#CC4CC4)s2)n2c-3cc3cc(-c4cnc([C@@H]5CCCN5C(=O)[C@@H](NC(=O)OC)C(C)C)[nH]4)ccc32)[nH]1)C(C)C` (single isomer, unassigned) [Compound 85], the IC50 in test [1] (setting [4]) turned out to be 0.41 nM; in test [2] (Hepatitis C virus), 0.0011 nM; in test [3] (read-out: 2B IC50, replicon 2B), 1 nM.
Regarding `COC(=O)NC(C(=O)N1CCC[C@H]1c1ncc(-c2cc(F)c3c(c2)OC(c2ccc(C4CC4)s2)n2c-3cc3cc(-c4cnc([C@@H]5C[C@H]6C[C@H]6N5C(=O)[C@@H](NC(=O)OC)C(C)C)[nH]4)ccc32)[nH]1)C(C)(C)F` (single isomer, unassigned) [Compound 98], the results for the half-inhibitory concentration (IC50) in test [1] (setting [4]), in test [2] and in test [3] (setting [6]) were 0.06 nM, 0.0011 nM and 2.16 nM, respectively.
Turning to `COC(=O)N[C@H](C(=O)N1CCC[C@H]1c1ncc(-c2cc(F)c3c(c2)OC(c2ccc(C(=O)N(C)C)s2)n2c-3cc3cc(-c4cnc([C@@H]5CCCN5C(=O)[C@@H](NC(=O)OC)C(C)C)[nH]4)ccc32)[nH]1)C(C)C` (single isomer, unassigned) [Compound 103], the IC50 in test [1] (setting [4]) was 5.15 nM; in test [2] (Hepatitis C virus), 0.0056 nM; in test [3] (read-out: 2B IC50, replicon 2B), 1.71 nM.
Turning to `COC(=O)NC(C(=O)N1CCC[C@H]1c1ncc(-c2cc(F)c3c(c2)OC(c2ccc(C4CC4)s2)n2c-3cc3cc(-c4cnc([C@@H]5CCCN5C(=O)C(NC(=O)OC)C(C)(C)F)[nH]4)ccc32)[nH]1)C(C)(C)F` (single isomer, unassigned) [Compound 110], the IC50 in test [1] (setting [4]) is 1.97 nM; in test [2] (Hepatitis C virus), 0.002 nM; in test [3] (read-out: 2B IC50, replicon 2B), 2.43 nM.
For `COC(=O)NC(C(=O)N1CCC[C@H]1c1ncc(-c2ccc3c(c2)cc2n3C(c3ccc(C4CC4)s3)Oc3cc(-c4cnc([C@@H]5C[C@@H](F)CN5C(=O)[C@@H](NC(=O)OC)C(C)C)[nH]4)cc(F)c3-2)[nH]1)C(C)(C)F` (single isomer, unassigned) [Compound 112], the IC50 in test [1] (setting [4]) stood at 0.23 nM; in test [2], 0.0022 nM; in test [3] (read-out: 2B IC50, replicon 2B), 7.07 nM.
`COC(=O)NC(C(=O)N1CCC[C@H]1c1ncc(-c2ccc3c(c2)cc2n3C(c3ccc(C4CC4)s3)Oc3cc(-c4cnc([C@@H]5C[C@@H](F)CN5C(=O)[C@@H](NC(=O)OC)C(C)C)[nH]4)cc(F)c3-2)[nH]1)C(C)(C)F` (single isomer, unassigned) [Compound 115]: the IC50 in test [1] (setting [4]) came to 0.05 nM; in test [2], 0.0011 nM; in test [3] (read-out: 2B IC50, replicon 2B), 9.84 nM.
For the compound `COC(=O)N[C@H](C(=O)N1CCC[C@H]1c1ncc(-c2cc(F)c3c(c2)OC(c2ccc(C(CF)CF)s2)n2c-3cc3cc(-c4cnc([C@@H]5CCCN5C(=O)[C@@H](NC(=O)OC)C(C)C)[nH]4)ccc32)[nH]1)C(C)C` (single isomer, unassigned) [Compound 120], the IC50 came out at 0.1 nM in test [1] (setting [5]); 0.0015 nM in test [2] (Hepatitis C virus); 1.44 nM in test [3] (read-out: 2B IC50, replicon 2B).
With `COC(=O)N[C@H](C(=O)N1CCC[C@H]1c1ncc(-c2cc(F)c3c(c2)OC(c2ccc(CC(F)(F)F)s2)n2c-3cc3cc(-c4cnc([C@@H]5CCCN5C(=O)[C@@H](NC(=O)OC)C(C)C)[nH]4)ccc32)[nH]1)C(C)C` (single isomer, unassigned) [Compound 124], the IC50 in test [1] (setting [5]) was 1.38 nM; in test [2] (Hepatitis C virus), 0.0018 nM; in test [3] (setting [6]), 3.4 nM.
